Results as given in ChEMBL document CHEMBL5233280, “Berberine improves liver injury induced glucose and lipid metabolic disorders via alleviating ER stress of hepatocytes and modulating gut microbiota in mice” (Bioorg Med Chem, 2021).
The source made the active and inactive calls. No cut-off for these calls is given here.

Tests used:
Format in all cases: functional, organism-based
[1] = test system: Mus musculus; experiment: (§1) Protection against tunicamycin-induced liver injury-mediated hepatic metabolic disorders in C57BL/6 mouse assessed as increase in CYP7A1 gene expression at 75 to 300 mg/kg, ig administered for 3 days and on day 3 administered with tunicamycin after 2 hrs and measured after 24 hrs by RT-qPCR analysis; settings: dose 75-300 mg/kg, time 4.0 day
[2] = test system: Mus musculus; experiment: as §1, with “PPARgamma2” for “CYP7A1”; settings: dose 75-300 mg/kg, time 4.0 day
[3] = test system: Mus musculus; experiment: Protection against tunicamycin-induced ER stress in C57BL/6 mouse assessed as downregulation of GRP78 gene expression in liver at 150 mg/kg, ig administered for 3 days and on day 3 administered with tunicamycin after 2 hrs and measured after 24 hrs by RT-qPCR analysis; settings: time 4.0 day
[4] = test system: Mus musculus; experiment: Protection against tunicamycin-induced gut microbiota dysbiosis in C57BL/6 mouse assessed as decrease in prevotellaceae-abundance in colon at 75 to 300 mg/kg, ig administered for 3 days and on day 3 administered with tunicamycin after 2 hrs and measured after 24 hrs; settings: dose 75-300 mg/kg, time 4.0 day
[5] = test system: Mus musculus; experiment: Protection against tunicamycin-induced ER stress in C57BL/6 mouse assessed as downregulation of CHOP gene expression in liver at 150 mg/kg, ig administered for 3 days and on day 3 administered with tunicamycin after 2 hrs and measured after 24 hrs by RT-qPCR analysis; settings: time 4.0 day
[6] = test system: Mus musculus; experiment: Protection against tunicamycin-induced liver injury-mediated hepatic metabolic disorders in C57BL/6 mouse assessed as increase in SCD1 gene expression at 75 to 300 mg/kg, ig administered for 3 days and on day 3 administered with tunicamycin after 2 hrs and measured after 24 hrs by RT-qPCR analysis; settings: dose 75-300 mg/kg, time 4.0 day
[7] = test system: Mus musculus; experiment: Protection against tunicamycin-induced gut microbiota dysbiosis in C57BL/6 mouse assessed as decrease in ratio of Prevotellaceae-to-Erysipelotrichaceae in colon at 75 to 300 mg/kg, ig administered for 3 days and on day 3 administered with tunicamycin after 2 hrs and measured after 24 hrs; settings: dose 75-300 mg/kg, time 4.0 day
[8] = test system: Mus musculus; experiment: Protection against tunicamycin-induced liver injury-mediated hepatic metabolic disorders in C57BL/6 mouse assessed as increase in FXR gene expression at 75 to 300 mg/kg, ig administered for 3 days and on day 3 administered with tunicamycin after 2 hrs and measured after 24 hrs by RT-qPCR analysis; settings: dose 75-300 mg/kg, time 4.0 day
[9] = test system: Mus musculus; experiment: (§2) Protection against tunicamycin-induced liver injury-mediated hepatic metabolic disorders in C57BL/6 mouse assessed as inhibition of lipid metabolic disorders by measuring increase in plasma TC level at 75 to 300 mg/kg, ig administered for 3 days and on day 3 administered with tunicamycin after 2 hrs and measured after 24 hrs; settings: dose 75-300 mg/kg, time 4.0 day
[10] = test system: Mus musculus; experiment: (§3) Protection against tunicamycin-induced liver injury-mediated hepatic metabolic disorders in C57BL/6 mouse assessed as increase in CD36 gene expression at 150 mg/kg, ig administered for 3 days and on day 3 administered with tunicamycin after 2 hrs and measured after 24 hrs by RT-qPCR analysis; settings: time 4.0 day
[11] = test system: Mus musculus; experiment: (§4) Protection against tunicamycin-induced ER stress-mediated liver injury in C57BL/6 mouse assessed as normal liver morphology at 75 to 300 mg/kg, ig administered for 3 days and on day 3 administered with tunicamycin after 2 hrs and measured after 24 hrs; settings: dose 75-300 mg/kg, time 4.0 day
[12] = test system: Mus musculus; experiment: as §1, with “reduction” for “increase”, “FGF21” for “CYP7A1”, “expression in liver” for “expression”; settings: dose 75-300 mg/kg, time 4.0 day
[13] = test system: Mus musculus; experiment: Protection against tunicamycin-induced UPR response in C57BL/6 mouse assessed as downregulation of PERK protein expression in liver at 150 mg/kg, ig administered for 3 days and on day 3 administered with tunicamycin after 2 hrs and measured after 24 hrs by western blot analysis; settings: time 4.0 day
[14] = test system: Mus musculus; experiment: as §2, with “HDL-C” for “TC”; settings: dose 75-300 mg/kg, time 4.0 day
[15] = test system: Mus musculus; experiment: as §1, with “PPARgamma1” for “CYP7A1”; settings: dose 75-300 mg/kg, time 4.0 day
[16] = test system: Mus musculus; experiment: as §2, with “in plasma VLDL-C level at” for “in plasma TC level at”, “24 hrs by ELISA” for “24 hrs”; settings: dose 75-300 mg/kg, time 4.0 day
[17] = test system: Mus musculus; experiment: Protection against tunicamycin-induced ER stress-mediated liver injury in C57BL/6 mouse assessed as plasma AST level at 75 to 300 mg/kg, ig administered for 3 days and on day 3 administered with tunicamycin after 2 hrs and measured after 24 hrs; settings: dose 75-300 mg/kg, time 4.0 day
[18] = test system: Mus musculus; experiment: Protection against tunicamycin-induced ER stress in C57BL/6 mouse assessed as downregulation of CHOP protein expression in liver at 150 mg/kg, ig administered for 3 days and on day 3 administered with tunicamycin after 2 hrs and measured after 24 hrs by western blot analysis; settings: time 4.0 day
[19] = test system: Mus musculus; experiment: Reduction in plasma albumin level in tunicamycin-induced liver injury C57BL/6 mouse model at 75 to 300 mg/kg, ig administered for 3 days and on day 3 administered with tunicamycin after 2 hrs and measured after 24 hrs; settings: dose 75-300 mg/kg, time 4.0 day
[20] = test system: Mus musculus; experiment: as §4, with “normal liver histology at 75” for “normal liver morphology at 75”, “24 hrs by Hematoxylin-eosin staining based microscopic analysis” for “24 hrs”; settings: dose 75-300 mg/kg, time 4.0 day
[21] = test system: Mus musculus; experiment: as §3, with “reduction” for “increase”, “TRB3” for “CD36”, “expression in liver” for “expression”; settings: time 4.0 day
[22] = test system: Mus musculus; experiment: Protection against tunicamycin-induced UPR response in C57BL/6 mouse assessed as downregulation of PERK gene expression in liver at 150 mg/kg, ig administered for 3 days and on day 3 administered with tunicamycin after 2 hrs and measured after 24 hrs by RT-qPCR analysis; settings: time 4.0 day
[23] = test system: Mus musculus; experiment: Protection against tunicamycin-induced gut microbiota dysbiosis in C57BL/6 mouse assessed as increase in Erysipelotrichaceae- abundance in colon at 75 to 300 mg/kg, ig administered for 3 days and on day 3 administered with tunicamycin after 2 hrs and measured after 24 hrs; settings: dose 75-300 mg/kg, time 4.0 day
[24] = test system: Mus musculus; experiment: Protection against tunicamycin-induced liver injury-mediated hepatic metabolic disorders in C57BL/6 mouse assessed as LDL-C level in liver at 75 to 300 mg/kg, ig administered for 3 days and on day 3 administered with tunicamycin after 2 hrs and measured after 24 hrs; settings: dose 75-300 mg/kg, time 4.0 day
[25] = test system: Mus musculus; experiment: Protection against tunicamycin-induced UPR response in C57BL/6 mouse assessed as downregulation of IRE1alpha protein expression in liver at 150 mg/kg, ig administered for 3 days and on day 3 administered with tunicamycin after 2 hrs and measured after 24 hrs by western blot analysis; settings: time 4.0 day
[26] = test system: Mus musculus; experiment: Protection against tunicamycin-induced liver injury-mediated hepatic metabolic disorders in C57BL/6 mouse assessed as TC level in liver at 75 to 300 mg/kg, ig administered for 3 days and on day 3 administered with tunicamycin after 2 hrs and measured after 24 hrs; settings: dose 75-300 mg/kg, time 4.0 day
[27] = test system: Mus musculus; experiment: Protection against tunicamycin-induced gut microbiota dysbiosis in C57BL/6 mouse assessed as increase in Epsilonbacteraeota-abundance in colon at 75 to 300 mg/kg, ig administered for 3 days and on day 3 administered with tunicamycin after 2 hrs and measured after 24 hrs; settings: dose 75-300 mg/kg, time 4.0 day
[28] = test system: Mus musculus; experiment: Protection against tunicamycin-induced gut microbiota dysbiosis in C57BL/6 mouse assessed as increase in proteobacteria abundance in colon at 75 to 300 mg/kg, ig administered for 3 days and on day 3 administered with tunicamycin after 2 hrs and measured after 24 hrs; settings: dose 75-300 mg/kg, time 4.0 day
[29] = test system: Mus musculus; experiment: Protection against tunicamycin-induced ER stress in C57BL/6 mouse assessed as downregulation of GRP78 protein expression in liver at 150 mg/kg, ig administered for 3 days and on day 3 administered with tunicamycin after 2 hrs and measured after 24 hrs by western blot analysis; settings: time 4.0 day
[30] = test system: Mus musculus; experiment: Protection against tunicamycin-induced ER stress-mediated liver injury in C57BL/6 mouse assessed as plasma ALT level at 75 to 300 mg/kg, ig administered for 3 days and on day 3 administered with tunicamycin after 2 hrs and measured after 24 hrs; settings: dose 75-300 mg/kg, time 4.0 day
[31] = test system: Mus musculus; experiment: Protection against tunicamycin-induced gut microbiota dysbiosis in C57BL/6 mouse assessed as increase in Pediococcus-pentosaceus abundance in colon at 150 mg/kg, ig administered for 3 days and on day 3 administered with tunicamycin after 2 hrs and measured after 24 hrs by LEfse analysis; settings: time 4.0 day
[32] = test system: Mus musculus; experiment: Protection against tunicamycin-induced liver injury-mediated hepatic metabolic disorders in C57BL/6 mouse assessed as HDL-C level in liver at 75 to 300 mg/kg, ig administered for 3 days and on day 3 administered with tunicamycin after 2 hrs and measured after 24 hrs; settings: dose 75-300 mg/kg, time 4.0 day
[33] = test system: Mus musculus; experiment: Protection against tunicamycin-induced liver injury-mediated hepatic metabolic disorders in C57BL/6 mouse assessed as reduction in FGF21 level in serum at 75 to 300 mg/kg, ig administered for 3 days and on day 3 administered with tunicamycin after 2 hrs and measured after 24 hrs by ELISA; settings: dose 75-300 mg/kg, time 4.0 day
[34] = test system: Mus musculus; experiment: Protection against tunicamycin-induced UPR response in C57BL/6 mouse assessed as downregulation of ATF6 gene expression in liver at 150 mg/kg, ig administered for 3 days and on day 3 administered with tunicamycin after 2 hrs and measured after 24 hrs by RT-qPCR analysis; settings: time 4.0 day
[35] = test system: Mus musculus; experiment: as §2, with “decrease” for “increase”, “liver TG” for “plasma TC”; settings: dose 75-300 mg/kg, time 4.0 day
[36] = test system: Mus musculus; experiment: Effect on Akt protein expression in liver of tunicamycin-induced liver injury C57BL/6 mouse model at 75 to 300 mg/kg, ig administered for 3 days and on day 3 administered with tunicamycin after 2 hrs and measured after 24 hrs in presence of insulin by western blot analysis; settings: dose 75-300 mg/kg, time 4.0 day
[37] = test system: Mus musculus; experiment: as §2, with “TG” for “TC”; settings: dose 75-300 mg/kg, time 4.0 day
[38] = test system: Mus musculus; experiment: as §2, with “LDL-C” for “TC”; settings: dose 75-300 mg/kg, time 4.0 day
[39] = test system: Mus musculus; experiment: Protection against tunicamycin-induced liver injury-mediated hepatic metabolic disorders in C57BL/6 mouse assessed as increase in phosphorylated Akt level in liver at 150 mg/kg, ig administered for 3 days and on day 3 administered with tunicamycin after 2 hrs and measured after 24 hrs in presence of insulin by western blot analysis; settings: time 4.0 day
[40] = test system: Mus musculus; experiment: as §1, with “ACCalpha1” for “CYP7A1”; settings: dose 75-300 mg/kg, time 4.0 day
[41] = test system: Mus musculus; experiment: Protection against tunicamycin-induced UPR response in C57BL/6 mouse assessed as downregulation of phosphorylated eIF2alpha protein expression in liver at 150 mg/kg, ig administered for 3 days and on day 3 administered with tunicamycin after 2 hrs and measured after 24 hrs by western blot analysis; settings: time 4.0 day

SMILES: COc1ccc2cc3[n+](cc2c1OC)CCc1cc2c(cc1-3)OCO2
- Activity [1]: inactive
- Activity [2]: inactive
- Activity [3]: Active
- Activity [4]: Active
- Activity [5]: Active
- Activity [6]: inactive
- Activity [7]: Active
- Activity [8]: inactive
- Activity [9]: Active
- Activity [10]: Active
- Activity [11]: Active
- Activity [12]: Active
- Activity [13]: Active
- Activity [14]: Active
- Activity [15]: inactive
- Activity [16]: Active
- Activity [17]: inactive
- Activity [18]: Active
- inhibition [19]: Active
- Activity [20]: Active
- Activity [21]: Active
- Activity [22]: Active
- Activity [23]: Active
- Activity [24]: inactive
- Activity [25]: Active
- Activity [26]: inactive
- Activity [27]: Active
- Activity [28]: Active
- Activity [29]: Active
- Activity [30]: inactive
- Activity [31]: Active
- Activity [32]: inactive
- Activity [33]: Active
- Activity [34]: Active
- Activity [35]: Active
- Activity [36]: inactive
- Activity [37]: Active
- Activity [38]: Active
- Activity [39]: Active
- Activity [40]: inactive
- Activity [41]: Active
